Broadly, the ΔTm is the change in melting temperature against a reference sample.

Experiment [1] has as its target T1, Conserved protein (Mycobacterium tuberculosis) (UniProt O53728).
T1 sequence (whole entry): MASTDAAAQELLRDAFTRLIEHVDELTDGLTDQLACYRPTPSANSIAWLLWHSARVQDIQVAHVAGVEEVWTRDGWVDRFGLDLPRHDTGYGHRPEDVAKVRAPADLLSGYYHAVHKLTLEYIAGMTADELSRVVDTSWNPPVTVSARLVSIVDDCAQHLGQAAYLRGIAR
Description: Binding affinity to Mycobacterium tuberculosis MST assessed as melting temperature in presence of nickle by differential scanning fluorimetry method

For experiment [2], the target named is T1, Conserved protein (Mycobacterium tuberculosis). This is another data set of the same source.
Description: Binding affinity to Mycobacterium tuberculosis MST assessed as change in melting temperature in presence of nickle by differential scanning fluorimetry method
The target is the same in experiment [3]. The source holds these as a separate data set.
Description: Binding affinity to Mycobacterium tuberculosis MST assessed as melting temperature in presence of cobalt by differential scanning fluorimetry method
Experiment [4] shares this target. The source holds these as a separate data set.
Description: Binding affinity to Mycobacterium tuberculosis MST assessed as change in melting temperature in presence of ferrous by differential scanning fluorimetry method
The target is the same in experiment [5]. The source holds these as a separate data set.
Description: Binding affinity to Mycobacterium tuberculosis MST assessed as change in melting temperature in presence of cobalt by differential scanning fluorimetry method
For experiment [6] the target is unchanged. This is another data set of the same source.
Description: Binding affinity to Mycobacterium tuberculosis MST assessed as change in melting temperature in presence of zinc by differential scanning fluorimetry method
Experiment [7] shares this target. The source holds these as a separate data set.
Description: Binding affinity to Mycobacterium tuberculosis MST assessed as melting temperature in presence of ferrous by differential scanning fluorimetry method
Experiment [8] shares this target. This is another data set of the same source.
Description: Binding affinity to Mycobacterium tuberculosis MST assessed as melting temperature by differential scanning fluorimetry method
For experiment [9] the target is unchanged. This is another data set of the same source.
Description: Binding affinity to Mycobacterium tuberculosis MST assessed as melting temperature in presence of zinc by differential scanning fluorimetry method

Take `CC(=O)N[C@@H](CS)C(=O)N[C@H]1[C@@H](O[C@@H]2[C@H](O)[C@H](O)[C@@H](O)[C@H](O)[C@H]2O)O[C@H](CO)[C@@H](O)[C@@H]1O`: the Tm in experiment [1] came to 68.9 °C; in [3] it was 65.1 °C; in experiment [7], 62.2 °C; in experiment [8], 59 °C; in experiment [9] it was 71.9 °C. For the same compound, the ΔTm in experiment [2] worked out at 9.9 °C; in experiment [4], 3.2 °C; in [5] it was 6.1 °C; in experiment [6], 12.9 °C.
